Tests used:
Mus musculus = assay: Dose that prevents convulsions in 50% of the CF1 male mice tested after administration of 70 mg/kg of metrazole by intravenous route; assay type: functional
[1] = molecular target: GABA-A receptor; anion channel; assay: In vitro displacement of [3H]-diazepam from GABA-A Benzodiazepine receptor; assay type: protein-complex assay
[2] = Lethal dose was determined after intraperitoneal administration in mice; assay type: toxicity, organism-based; details: mouse, in vivo, ip

Which ED50 (Mus musculus) does the source give for `Cl.NCC(=O)Nc1ccc(Cl)cc1C(=O)c1c(Cl)cccc1Cl` here?
The ED50 was over 400 mg/kg.

What about the IC50 [1] of the same molecule?
Its IC50 is 1000 nM.

For `CN(C(=O)CN)c1ccc(Cl)cc1C(=O)c1c(Cl)cccc1Cl.Cl`, which LD50 [2] is on record?
Its LD50 is 245 mg/kg.

And the ED50 (Mus musculus)?
The ED50 was over 200 mg/kg.

And the IC50 [1]?
Its IC50 is 930 nM.

With `NCC(=O)Nc1ccc(Cl)cc1C(=O)c1ccccc1Cl` as the molecule, how does the ED50 (Mus musculus) read?
Its ED50 is 3.8 mg/kg.

And the IC50 [1]?
Its IC50 is 4.8 nM.

With `CN1C(=O)CN=C(c2c(Cl)cccc2Cl)c2cc(Cl)ccc21` as the molecule, how does the ED50 (Mus musculus) read?
Its ED50 is 18.9 mg/kg.

What about the IC50 [1] of the same molecule?
The IC50 was 7 nM.

Which results are given for `CN(C(=O)CN)c1ccc(Cl)cc1C(=O)c1ccccc1`?
ED50 (Mus musculus): 1 mg/kg; IC50 [1]: 9.9 nM

Which ED50 (Mus musculus) does the source give for `O=C1CN=C(c2ccccc2Cl)c2cc(Cl)ccc2N1` [DELORAZEPAM] here?
Its ED50 is 0.26 mg/kg.

What about the IC50 [1] of the same molecule?
Its IC50 is 2.8 nM.

With `CN1C(=O)CN=C(c2ccccc2)c2cc(Cl)ccc21` [DIAZEPAM] as the molecule, how does the ED50 (Mus musculus) read?
Its ED50 is 1.2 mg/kg.

For `O=C1CN=C(c2c(Cl)cccc2Cl)c2cc(Cl)ccc2N1` [RO-223294], which ED50 (Mus musculus) is on record?
Its ED50 is 6 mg/kg.

And the IC50 [1]?
Its IC50 is 5.5 nM.

— ChEMBL document CHEMBL1122128, “Quinazolines and 1,4-benzodiazepines. 90. Structure-activity relationship between substituted 2-amino-N-(2-benzoyl-4-chlorophenyl)acetamides and 1,4-benzodiazepinones” (J Med Chem, 1982)
